According to patent US11332712B2, “Cell culture media and method for culturing breast cancer cells” (UNIVERSITY OF MIAMI, priority 2013, dated 2022):
“Also recorded” adds a separate entry of the source.

Assays:
human breast tumor cells = test: Culture of human breast tumor cells, effect of medium components (Example 1); type: cell-based; conditions: preliminary experiments; compared to Retinol
Method: The base WIT cell culture medium contains 0.1 mg/L Calciferol (vitamin D2) and this medium is supplemented with 2-5% fetal bovine serum (FBS) to culture human ovarian carcinoma cells (WIT-OC medium). It was hypothesized that both of these components should be removed from the cell culture medium for the successful culture of human breast cancer cells because FBS contains vitamins and hormones such as vitamin D and androgens. […] Thus, charcoal stripped fetal bovine serum (csFBS) was utilized to culture breast tumor cells because activated carbon removes non-polar material such as lipophilic (lipid-related) materials (virus, certain growth factors, hormones and cytokines) regardless of molecular weight but has little effect on salts, glucose, amino acids, etc. The WIT-OC medium also contained vitamin A acetate (Retinol) which is a weaker form of vitamin A, compared to all-trans-retinoic acid (ATRA).
Thus, in order to formulate a cell culture medium optimized to culture human breast tumor cells, as opposed to ovarian tumors, and other tumors, a WIT cell culture medium was prepared without any vitamin D, vitamin A, or androgens, and this medium was supplemented 100 nM ATRA, and 0.5-2% charcoal stripped fetal bovine serum (csFBS). We refer to this medium as WIT-BC, or WIT-BCe when estrogen is added.

[1] = system: breast cancer cell lines (T47D, ZR751, MCF7 and BT474); test: Breast cancer cell line proliferation assay with and without AR agonist (FIG. 8), trypan blue/Cellometer count; type: cell-based; conditions: 10 nM with 17 beta-Estradiol (10 nM), phenol-red free DMEM with 5% csFBS, 4 days
Method: Four different breast cancer cell lines (T47D, ZR751, MCF7 and BT474) were cultured both with and without AR agonist […]. […] After 3 days, an AR agonist R1881 (10 nM) and 17 beta-Estradiol (10 nM) were added to the media. […] All the conditions were carried out in triplicate and the experiments were repeated at least twice.

Structure (SMILES)	effect on growth/culture of breast tumor cells (human breast tumor cells)	effect on breast cancer cell proliferation [1]
CC1=C(/C=C/C(C)=C/C=C/C(C)=C/C(=O)O)C(C)(C)CCC1 [ATRA, all-trans-retinoic acid]	promoting the growth of the breast tumor cells; also recorded: needed for the optimum culture	
C[C@]1(O)CC[C@H]2[C@@H]3CCC4=CC(=O)CCC4=C3C=C[C@@]21C [R1881, methyltrienolone]		inhibitory effect
